# Laboratory results as given in US8076352B2, “Administration of carboline derivatives useful in the treatment of cancer and other diseases” (PTC Therapeutics, Inc., priority 2004, dated 2011).
# Tested on: hypoxia-inducible endogenous VEGF expression in HeLa cells
# Assay: Hypoxia-inducible endogenous VEGF expression, VEGF ELISA of conditioned media (dose-response EC50)
# Assay type: cell-based
# Settings: HeLa cells under hypoxic conditions
# Method in brief: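 Secreted VEGF was quantified by ELISA against a per-assay standard curve after HeLa cells spent 24-48 h in 1% O2, 5% CO2, N2 balance with or without compound. Across a series of, e.g., seven concentrations, percentage inhibition (max 100%, min 0%) gave EC50 and CC50 values.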
row,EC50 [nM],SMILES
1,40 to 200,O=[N+](O)c1ccc(C2NCCc3c2[nH]c2ccc(Br)cc32)cc1 (stereo not shown) [Compound 153]

# Same assay, conditions: HeLa cells, hypoxic conditions (1% O2)
row,EC50 [nM],SMILES
1,< 8,CC(C)c1ccc(C2c3[nH]c4ccc(Br)cc4c3CCN2C(=O)Oc2ccc(Cl)cc2)cc1 (stereo not shown) [Compound 572]
2,< 8,Cc1ccc(C2c3[nH]c4ccc(Br)cc4c3CCN2C(=O)Oc2ccc(F)cc2)cc1 (stereo not shown) [Compound 403]

# Same assay, conditions: Homo sapiens, HeLa cells under hypoxic conditions
row,EC50 [nM],SMILES
1,> 1000,COc1ccc(C2c3[nH]c4ccccc4c3CCN2C(=O)NC2CCCCC2)cc1 (stereo not shown) [Compound 295]
2,8 to 40,COC(=O)N1CCc2c([nH]c3ccc(Cl)cc23)C1c1ccc(C)cc1 (stereo not shown) [Compound 52]
3,200 to 1000,COCC(=O)N1CCc2c([nH]c3ccc(Br)cc23)C1c1ccc(OC)cc1 (stereo not shown) [Compound 204]
4,8 to 40,CC(=O)N1CCc2c([nH]c3ccc(Br)cc23)C1c1ccc(Cl)cc1 (stereo not shown) [Compound 50]
5,> 1000,COCCOCC(=O)N1CCc2c([nH]c3ccc(Br)cc23)C1c1ccc(Br)cc1 (stereo not shown) [Compound 241]
6,> 1000,COc1ccc(C2NCCc3c2[nH]c2ccc(OC)cc32)cc1 (stereo not shown) [Compound 323]
7,8 to 40,CCOC(=O)N1CCc2c([nH]c3ccc(Cl)cc23)C1c1ccc(Br)cc1 (stereo not shown) [Compound 54]
8,< 8,COc1ccc(C2c3[nH]c4ccc(Br)cc4c3CCN2C(=O)Oc2ccc(Cl)cc2)cc1 (stereo not shown) [Compound 355]
9,> 1000,COc1cccc(C2NCCc3c2[nH]c2ccc(Br)cc32)c1O (stereo not shown) [Compound 377]
10,40 to 200,COc1ccc(C2c3[nH]c4ccc(Br)cc4c3CCN2C(C)=O)cc1 (stereo not shown) [Compound 130]
11,40 to 200,S=C(NC1CCCCC1)N1CCc2c([nH]c3ccc(Br)cc23)C1c1cccc(Cl)c1 (stereo not shown) [Compound 150]
12,200 to 1000,Clc1ccc2[nH]c3c(c2c1)CCNC3c1ccc(Br)cc1 (stereo not shown) [Compound 171]
13,< 8,COc1ccc(C2c3[nH]c4ccc(Cl)cc4c3CCN2C(=O)OCC(C)C)cc1 (stereo not shown) [Compound 30]
14,40 to 200,COc1ccc(C2c3[nH]c4ccc(Cl)cc4c3CCN2C(=O)NC2CCCCC2)cc1 (stereo not shown) [Compound 147]
15,< 8,CCOC(=O)N1CCc2c([nH]c3ccc(Br)cc23)C1c1cccc(Br)c1 (stereo not shown) [Compound 44]
16,40 to 200,CCNC(=S)N1CCc2c([nH]c3ccc(Cl)cc23)C1c1ccc(OC)cc1 (stereo not shown) [Compound 146]
17,> 1000,COc1ccc(C2NC(C(=O)NC3CCCCC3)Cc3c2[nH]c2ccc(Br)cc32)cc1 (stereo not shown) [Compound 245]

# Further lines, the compound ahead of its results:
row,SMILES,EC50 [nM]
1,O=C(Oc1ccc(Cl)cc1)N1CCc2c([nH]c3ccc(Cl)cc23)C1c1ccc(S(=O)(=O)N2CCOCC2)cc1 (stereo not shown) [Compound 346],8 to 40
2,Clc1ccc(C2NCCc3c2[nH]c2ccc(Br)cc32)c(Cl)c1 (stereo not shown) [Compound 135],40 to 200
3,O=C(COc1ccc(C2c3[nH]c4ccc(Cl)cc4c3CCN2C(=O)Oc2ccccc2)cc1)Oc1ccccc1 (stereo not shown) [Compound 366],> 1000
4,COC(=O)c1cccc(NC(=S)N2CCc3c([nH]c4ccccc34)C2c2ccc(OC)cc2)c1 (stereo not shown) [Compound 316],> 1000
5,Fc1cc(F)cc(C2NCCc3c2[nH]c2ccc(Br)cc32)c1 (stereo not shown) [Compound 155],40 to 200
6,CCOC(=O)N1CCc2c([nH]c3ccc(Cl)cc23)C1C1CCCCC1 (stereo not shown) [Compound 145],40 to 200
7,CCOC(=O)N1CCc2c([nH]c3ccc(F)cc23)C1c1ccc(C)cc1 (stereo not shown) [Compound 209],200 to 1000
8,CC(C)NC(=S)N1CCc2c([nH]c3ccc(Br)cc23)C1c1ccccc1 (stereo not shown) [Compound 158],40 to 200
9,Clc1ccc2[nH]c3c(c2c1)CCN(Cc1ccco1)C3c1nccs1 (stereo not shown) [Compound 267],> 1000
10,CCCOC(=O)N1CCc2c([nH]c3ccc(Cl)cc23)C1c1cccc(OC)c1 (stereo not shown) [Compound 86],8 to 40
11,CCCOC(=O)N1CCc2c([nH]c3ccc(Cl)cc23)C1c1ccc(C(C)C)cc1 (stereo not shown) [Compound 13],< 8
12,COc1ccccc1C1NCCc2c1[nH]c1ccc(Cl)cc21 (stereo not shown) [Compound 301],> 1000
13,CCOC(=O)Oc1cccc(C2c3[nH]c4ccc(Cl)cc4c3CCN2C(=O)OCC)c1 (stereo not shown) [Compound 175],200 to 1000
14,Clc1ccc2[nH]c3c(c2c1)CCN(Cc1ccccc1)C3c1ccncc1 (stereo not shown) [Compound 272],> 1000
15,CCOC(=O)N1CCc2c([nH]c3ccc(Cl)cc23)C1c1ccc(Cl)cc1 (stereo not shown) [Compound 11],< 8
16,COC(=O)N1CCc2c([nH]c3ccc(Cl)cc23)C1c1cccc(C(F)(F)F)c1 (stereo not shown) [Compound 125],40 to 200
17,CN(C)c1ncc(C2c3[nH]c4ccc(Br)cc4c3CCN2c2ncccn2)cn1 (stereo not shown) [Compound 394],< 8
18,Clc1ccc2[nH]c3c(c2c1)CCN(Cc1ccccc1)C3c1ccc2c(c1)OCO2 (stereo not shown) [Compound 176],200 to 1000
19,O=C(OCCCl)N1CCc2c([nH]c3ccc(Cl)cc23)C1c1cc(F)cc(F)c1 (stereo not shown) [Compound 83],8 to 40
20,CC(C)OC(=O)N1CCc2c([nH]c3ccc(Cl)cc23)C1c1cccc(Cl)c1 (stereo not shown) [Compound 87],8 to 40

# Same assay, conditions: Homo sapiens, HeLa cells, hypoxic conditions (1% O2)
row,EC50 [nM],SMILES
1,< 8,CCOC(=O)N1CCc2c([nH]c3ccc(Br)cc23)C1c1ccc(C(F)(F)F)cc1 (stereo not shown) [Compound 434]
2,< 8,CCOC(=O)N1CCc2c([nH]c3ccc(Br)cc23)C1c1ccc(C(=O)N2CCN(CC)CC2)cc1 (stereo not shown) [Compound 425]
3,40 to 200,CCOC(=O)N1CCc2c([nH]c3ccc(Br)cc23)C1c1ccc(C(=O)NCCO)cc1 (stereo not shown) [Compound 490]
4,40 to 200,CCOC(=O)N1CCc2c([nH]c3ccc(Br)cc23)C1c1ccc(C(=O)N(C)C)cc1 (stereo not shown) [Compound 483]
5,< 8,COc1ccc(C2c3[nH]c4ccc(Cl)cc4c3CCN2C(=O)Oc2ccc(F)cc2)cc1 (stereo not shown) [Compound 401]
6,< 8,CCOC(=O)N1CCc2c([nH]c3ccc(Br)cc23)C1c1ccc(CNCCOC)cc1 (stereo not shown) [Compound 420]
7,< 8,O=C(Oc1ccc(Cl)cc1)N1CCc2c([nH]c3ccc(Cl)cc23)C1c1ccc(NC2CCOCC2)cc1 (stereo not shown) [Compound 440]
8,200 to 1000,O=C(O)c1ccc(C2c3[nH]c4ccc(Br)cc4c3CCN2C(=O)Oc2ccc(Cl)cc2)cc1 (stereo not shown) [Compound 519]
9,< 8,COCCOc1ccc(C2c3[nH]c4ccc(Cl)cc4c3CCN2C(=O)OC(C)C)cc1 (stereo not shown) [Compound 411]
10,40 to 200,CCOC(=O)N1CCc2c([nH]c3ccc(Br)cc23)C1c1ccc(C(=O)NCCN2CCOCC2)cc1 (stereo not shown) [Compound 488]

# The remaining lines, values behind:
row,SMILES,EC50 [nM]
1,COCCOCCOc1ccc(C2c3[nH]c4ccc(Cl)cc4c3CCN2C(=O)Oc2ccc(C)cc2)cc1 (stereo not shown) [Compound 677],8 to 40
2,O=C(Oc1ccc(Cl)cc1)N1CCc2c([nH]c3ccc(Cl)cc23)C1c1ccc(OCC2CO2)cc1 (stereo not shown) [Compound 460],8 to 40
3,COCCOCCOc1ccc(C2c3[nH]c4ccc(Cl)cc4c3CCN2C(=O)Oc2ccc(Cl)cc2)cc1 (stereo not shown) [Compound 675],8 to 40
4,CCOC(=O)N1CCc2c([nH]c3ccc(Cl)cc23)C1c1ccc(C(=O)N(C)CCc2ccccn2)cc1 (stereo not shown) [Compound 518],200 to 1000
5,CCOC(=O)N1CCc2c([nH]c3ccc(Cl)cc23)C1c1ccc(C(=O)N2COCC2(C)C)cc1 (stereo not shown) [Compound 441],8 to 40
6,CCOC(=O)N1CCc2c([nH]c3ccc(Cl)cc23)C1c1cnc(NC)nc1 (stereo not shown) [Compound 506],40 to 200
7,CC(C)(C)OC(=O)N[C@@H](Cc1ccccc1)C(=O)Oc1ccc(C2c3[nH]c4ccc(Cl)cc4c3CCN2C(=O)OC(C)(C)C)cc1 (stereo partly shown) [Compound 451],8 to 40
8,CCOC(=O)N1CCc2c([nH]c3ccc(Cl)cc23)C1c1cccc(C(=O)N2CCN(CCOC)CC2)c1 (stereo not shown) [Compound 562],> 1000
9,CC(C)OC(=O)Nc1ccc(C2c3[nH]c4ccc(Cl)cc4c3CCN2C(=O)Oc2ccc(Cl)cc2)cc1 (stereo not shown) [Compound 489],40 to 200
10,COCCOc1ccc(C2c3[nH]c4ccc(Cl)cc4c3CCN2C(=O)OCc2ccccc2)cc1 (stereo not shown) [Compound 419],< 8
11,CSCCC1NCCc2c1[nH]c1ccc(Cl)cc21 (stereo not shown) [Compound 497],40 to 200
12,CCOC(=O)N1CCc2c([nH]c3ccc(Cl)cc23)C1C(C)Cc1ccc(C(C)C)cc1 (stereo not shown) [Compound 523],200 to 1000
13,CCOC(=O)N1CCc2c([nH]c3ccc(Cl)cc23)C1c1cccc(C(=O)NCCN2CCOCC2)c1 (stereo not shown) [Compound 552],200 to 1000
14,O=C(Oc1ccc(Cl)cc1)N1CCc2c([nH]c3ccc(Cl)cc23)C1c1ccc(OCCCCn2ccnc2)cc1 (stereo not shown) [Compound 705],8 to 40
15,COCCCNCCCCOc1ccc(C2c3[nH]c4ccc(Cl)cc4c3CCN2C(=O)Oc2ccc(Cl)cc2)cc1 (stereo not shown) [Compound 701],8 to 40
16,CCOC(=O)N1CCc2c([nH]c3ccc(Cl)cc23)C1c1cnc(N(C)C)nc1 (stereo not shown) [Compound 476],40 to 200
17,CCOC(=O)N1CCc2c([nH]c3ccc(Cl)cc23)C1c1ccc(C(=O)N2CCOCC2)cc1 (stereo not shown) [Compound 492],40 to 200

# Same assay, conditions: Homo sapiens, HeLa cells, hypoxic conditions (1% O2, 5% CO2)
row,SMILES,EC50 [nM]
1,NCC(O)COc1ccc(C2c3[nH]c4ccc(Cl)cc4c3CCN2C(=O)Oc2ccc(Cl)cc2)cc1 (stereo not shown) [Compound 846],40 to 200
2,O=C(Oc1ccc(Cl)cc1)N1CCc2c([nH]c3ccc(Cl)cc23)C1c1ccc(OCCCN2CCOCC2)cc1 (stereo not shown) [Compound 894],< 8
3,Cc1ccc(OC(=O)N2CCc3c([nH]c4ccc(Cl)cc34)C2c2ccc(OCC3CCCN(C)C3)cc2)cc1 (stereo not shown) [Compound 951],8 to 40
4,CC(=O)NCC(O)COc1ccc(C2c3[nH]c4ccc(Cl)cc4c3CCN2C(=O)Oc2ccc(Cl)cc2)cc1 (stereo not shown) [Compound 847],8 to 40
5,O=C(Oc1ccc(Cl)cc1)N1CCc2c([nH]c3ccc(Cl)cc23)C1c1ccc(OCC(O)Cn2ccnn2)cc1 (stereo not shown) [Compound 973],8 to 40
6,COCCN(C)CCCOc1ccc(C2c3[nH]c4ccc(Cl)cc4c3CCN2C(=O)Oc2ccc(Cl)cc2)cc1 (stereo not shown) [Compound 908],< 8
7,O=C(Oc1ccc(Cl)cc1)N1CCc2c([nH]c3ccc(Cl)cc23)C1c1ccc(OCC(O)Cn2cncn2)cc1 (stereo not shown) [Compound 996],< 8
8,CCS(=O)(=O)Nc1ccc(C2c3[nH]c4ccc(Cl)cc4c3CCN2C(=O)Oc2ccc(Cl)cc2)cc1 (stereo not shown) [Compound 958],8 to 40
9,COCCN(CCCOc1ccc(C2c3[nH]c4ccc(Cl)cc4c3CCN2C(=O)Oc2ccc(Cl)cc2)cc1)CCOC (stereo not shown) [Compound 916],< 8
